Entries after “also recorded” stand apart in the source; their conditions may differ. Where two headings read alike, the source gives them in different places.
Legend:
[1] = regressed when marimastat was stopped; cited from earlier work
[2] = Circular dichroism spectroscopy of relaxin-2 fold and stability; assay type: physicochemical; settings: for time relaxin-2 is stable: 37° C., no loss of alpha helical structure
Procedure: Relaxin-2 loaded PLGA microparticles (RMPs) were prepared based on the water/oil/water (w/o/w) method as described by Igartua, M., et. al., International Journal of Pharmaceutics, 1998, 169(1): 45-54 at 1.27×10-3 wt % loaded relaxin as determined by ELISA analysis. Significant optimization and tailoring of the method was required to obtain the particle. Amounts, time, temperature, mixing speed, polymer LA:GA content were all varied to identify a unique non-obvious set of conditions to prepare the polymer. […] Relaxin-2 in the relaxin-2 microparticles maintained its native secondary and tertiary structure through the w/o/w double-emulsion process. […] Additionally, relaxin-2 was stable at 37° C. over 2 months (FIG. 2, right). The relaxin-2 PLGA microparticles were prepared with batch-to-batch consistency and were resuspended in PEG-600 to reduce aggregation and flocculation, as well as to ease administration through a 23 G needle.
Two amphiphilic hydrogels were synthesized for the physical entrapment of relaxin-2 in order to control its sustained release (FIG. 6). These amphiphilic molecules melted at 95° C. and congealed when slowly cooled back to room temperature strictly from non-covalent interactions. The alkyl chain of 1 and alkyl fluoride chain of 2 allow for hydrophobic interactions between each molecule, while the trizol and thymidine moieties allow for pi-pi stacking. Lastly, the deoxyribose and glucose groups facilitate hydrogen bonding (Godeau, G., et al., Tetrahedron Letters 2010, 51: 1012-1015; Ramen, F. A. et al., Biomaterials. 2017, 145: 72-80). Together, these amphiphilic molecules create unique and stable supramolecular assemblies that are stable at 37° C. for at least two weeks. This stability feature is another novel finding and benefit to the use of the hydrogels. Three gels of each 1 and 2 were created with bovine serum albumin and relaxin-2 at different densities by dissolving each molecule in a solution of phosphate buffered saline with protein and heating to 95° C. for 30 minutes. […]

[3] = system: collagen I expression in human fibroblast-like synoviocytes (HFLS); assay: Collagen I expression in synoviocytes treated with relaxin-2 microparticles in transwells; assay type: cell-based
Text: Human fibroblast-like synoviocytes (HFLS) treated with relaxin-2 microparticles in transwells allow for evaluation of the release and efficacy of released relaxin-2 at various time points. […] In the presence of relaxin-2, collagen I is expressed at 20 to 30% of the basal level at weeks 1, 3, and 4.

[4] = system: glenohumeral joint in an animal model of shoulder contracture; assay: Range of motion in rat shoulder contracture model; assay type: in vivo, rats
Procedure: The study was approved by the Institutional Animal Care and Use Committee, and 10 Sprague-Dawley rats (250-300 g, Charles River Laboratories, Wilmington, Mass., USA) were used in the study. For each animal, torque was measured per degree, on the intact left shoulder as a function of rotation angle between 80° of internal rotation (negative values by convention) and 60° of external rotation (positive values by convention) prior to any surgical intervention (baseline). […] Therefore, torque values at 60° external rotation (τOUT) and 800 of internal rotation (τINT) were recorded for each animal. The left forelimb of each animal was immobilized using extraarticular internal fixation. Under isoflurane anesthesia, a longitudinal skin incision was made perpendicular to the scapular spine. Two No. 2-0 braided polyester sutures (Ethibond Excel, Ethicon—San Lorenzo, PR, USA) were passed between the medial border of the scapula and the humeral shaft and tightened to immobilize the shoulder joint (FIG. 1, panel A). Muscular structures were not manipulated during surgery, and the animals were allowed normal activity in their cages immediately after the procedure. After 8 weeks of immobilization, the restraining sutures were removed, and the 10 animals were divided into two groups to evaluate changes in ROM (ROM group, n=5) and joint stiffness (stiffness group, n=5). In the ROM group, changes in kinematics were longitudinally quantified in the follow-up period by measuring the ROM achieved with the TOUT and TINT measured at baseline. This was conducted to evaluate whether immobilization mediated a significant reduction in ROM. In the stiffness group, joint kinetics were examined by measuring the differences in TOUT and TINT needed to achieve the original 800 of internal rotation and 60° of external rotation, respectively. […] The baseline measurements for each group were used as internal controls to reduce the total number of animals necessary for the study. […] ROM and torque measurements were performed under general anesthesia using a device that consisted of a sensor assembly, a rotating axle, and an arm clamp. The sensor assembly contained an orientation sensor (3DM-GX3-15, MicroStrain—Williston, Vt.), as well as a reaction torque sensor (TFF400, Futek—Irvine, Calif.) secured to the axle such that the sensing axis was collinear with the center of rotation. […] In the ROM group, pre-set programmable torque values, specific for each animal and measured at baseline (TOUT and TINT), were used as input variables in order to detect changes in rotation ROM with 0.2° resolution. […] For each animal, torque was measured per degree, on the intact left shoulder as a function of rotation angle between 1000 of internal rotation and 600 of external rotation prior to any surgical intervention. […]

[5] = system: shoulder joint in an animal model of shoulder contracture; assay: Histological analysis of the shoulder joint in rat contracture model; assay type: in vivo, rats; settings: immobilized shoulders, FIG. 12
heart failure = settings: 30 micrograms/kg/day for 2 days, intravenous infusion; cited from earlier work
human fibroblasts = settings: cited from earlier work
[6] = system: collagen build-up in the lung induced by bleomycin; settings: cited from earlier work
[7] = system: cultured renal fibroblasts, epithelial cells and mesangial cells; settings: TGF-β-induced; cited from earlier work
[8] = cited from earlier work
scleroderma = settings: cited from earlier work

Compound | adverse effect in patients [1] | time relaxin-2 is stable [2] | time relaxin-2 is stable ([2]; listed as relaxin-2) | secondary/tertiary structure of relaxin-2 after w/o/w double emulsion process ([2]; circular dichroism, freshly prepared vs emulsified) | collagen I reduced to (densitometry) ([3]; after release of relaxin-2 from microparticles, FIG. 4 legend) | collagen I expression compared to untreated control ([3]; relaxin-2 released over four weeks, synoviocytes) | internal ROM ([4]; intravenous injection at a much greater dose) | internal ROM ([4]; mIA relaxin-2 5 x 2 ug/kg every other day, or single intraarticular RMP approx. 10 ug/kg, follow-up 8 weeks) | internal ROM ([4]; mIA relaxin-2 5 x 2 ug/kg every other day, or single intraarticular RMP approx. 10 ug/kg, follow-up 8 weeks, listed as relaxin-2) | internal ROM ([4]; singular articular injection) | histology: adhesions / hallmarks of arthrofibrosis [5] | trial's primary endpoint of effectiveness (heart failure) | levels of collagen types I and III and fibronectin (human fibroblasts) | collagen build-up in the lung and overall fibrosis [6] | fibronectin levels and degradation [7] | efficacy in animals ([8]; bolus dose) | efficacy in animals ([8]; sustained dose) | trial's primary endpoint of effectiveness (scleroderma; 25 micrograms/kg/day for 24 weeks, subcutaneous delivery) | adverse events (scleroderma; in vivo, sc)
CNC(=O)[C@@H](NC(=O)[C@H](CC(C)C)[C@H](O)C(=O)NO)C(C)(C)C [marimastat] | developed shoulder contractures | – | – | – | – | – | – | – | – | – | – | – | – | – | – | – | – | – | –
Relaxin-2 | – | up to 2 months | 2 months | no change; also recorded: unaffected by the double emulsion process | approximately 50% | significant downregulation in collagen I expression | similarly constricted internal ROM compared with the untreated control group | significant increase back to healthy baseline by week 2 | restoration of internal ROM to baseline measurements | similarly constricted internal ROM compared with the untreated control group | lacked any apparent adhesions | did not meet the trial's primary endpoint of effectiveness | reduction | decreased collagen build-up | decreased TGF-β-induced fibronectin levels and increased fibronectin degradation | not be effective | effective | did not meet the trial's primary endpoint of effectiveness | declines in creatine clearance and renal adverse events

Reference: US11439685B2, “Formulations for treating a fibrotic disease” (TRUSTEES OF BOSTON UNIVERSITY, priority 2020, dated 2022)
